Assay results taken from ChEMBL document CHEMBL4507259 (2021).

Columns and labels:
[1] = biological target: Tyrosine-protein kinase ABL2 (Homo sapiens) (UniProt P42684); conditions: Compound concentration 1000.0 nM
[2] = biological target: Melatonin receptor type 1B (Homo sapiens) (UniProt P49286); assay: MT2 (ML1B) (h) CEREP ligand profiling; conditions: filed as agonist, Compound concentration 10.0 uM
[3] = biological target: Glucocorticoid receptor (Homo sapiens) (UniProt P04150); assay: GR (h) CEREP ligand profiling; conditions: filed as agonist, Compound concentration 10.0 uM
[4] = biological target: Mitogen-activated protein kinase kinase kinase 14 (Homo sapiens) (UniProt Q99558); conditions: Compound concentration 1000.0 nM
[5] = biological target: Serine/threonine-protein kinase 32B (Homo sapiens) (UniProt Q9NY57); conditions: Compound concentration 1000.0 nM
[6] = tested on: Tyrosine-protein kinase ABL1 (Homo sapiens), P00519 [H396P]; conditions: Compound concentration 1000.0 nM
[7] = biological target: Phosphatidylinositol 4,5-bisphosphate 3-kinase catalytic subunit gamma isoform (Homo sapiens) (UniProt P48736); conditions: Compound concentration 1000.0 nM
[8] = biological target: Calcium/calmodulin-dependent protein kinase type 1D (Homo sapiens) (UniProt Q8IU85); conditions: Compound concentration 1000.0 nM
[9] = biological target: Serine/threonine-protein kinase Chk2 (Homo sapiens) (UniProt O96017); conditions: Compound concentration 1000.0 nM
[10] = biological target: Insulin receptor-related protein (Homo sapiens) (UniProt P14616); conditions: Compound concentration 1000.0 nM
[11] = biological target: Mitogen-activated protein kinase 9 (Homo sapiens) (UniProt P45984); conditions: Compound concentration 1000.0 nM
[12] = biological target: Receptor-interacting serine/threonine-protein kinase 1 (Homo sapiens) (UniProt Q13546); conditions: Compound concentration 1000.0 nM
[13] = biological target: Histamine H1 receptor (Homo sapiens) (UniProt P35367); assay: H1 (h) CEREP ligand profiling; conditions: filed as antagonist, Compound concentration 10.0 uM
[14] = biological target: Histamine H1 receptor (Homo sapiens) (UniProt P35367); conditions: Compound concentration 10.0 uM
[15] = biological target: Ephrin type-B receptor 6 (Homo sapiens) (UniProt O15197); conditions: Compound concentration 1000.0 nM
[16] = biological target: BDNF/NT-3 growth factors receptor (Homo sapiens) (UniProt Q16620); conditions: Compound concentration 1000.0 nM
[17] = biological target: Dual specificity tyrosine-phosphorylation-regulated kinase 1A (Homo sapiens) (UniProt Q13627); conditions: Compound concentration 1000.0 nM
[18] = biological target: Histamine H2 receptor (Homo sapiens) (UniProt P25021); assay: H2 (h) CEREP ligand profiling; conditions: filed as antagonist, Compound concentration 10.0 uM
[19] = biological target: Tyrosine-protein kinase JAK3 (Homo sapiens) (UniProt P52333); conditions: Compound concentration 1000.0 nM
[20] = biological target: Dual specificity protein kinase TTK (Homo sapiens) (UniProt P33981); conditions: Compound concentration 1000.0 nM
[21] = biological target: G protein-coupled receptor kinase 4 (Homo sapiens) (UniProt P32298); conditions: Compound concentration 1000.0 nM
[22] = biological target: Serine/threonine-protein kinase TAO3 (Homo sapiens) (UniProt Q9H2K8); conditions: Compound concentration 1000.0 nM
[23] = biological target: Serine/threonine-protein kinase 38-like (Homo sapiens) (UniProt Q9Y2H1); conditions: Compound concentration 1000.0 nM
[24] = biological target: Mitogen-activated protein kinase kinase kinase 9 (Homo sapiens) (UniProt P80192); conditions: Compound concentration 1000.0 nM
[25] = biological target: Death-associated protein kinase 1 (Homo sapiens) (UniProt P53355); conditions: Compound concentration 1000.0 nM
[26] = tested on: Tyrosine-protein kinase ABL1 (Homo sapiens), P00519 [H396P]; conditions: Compound concentration 1000.0 nM; remark: listed apart in the source
[27] = biological target: Mitogen-activated protein kinase 4 (Homo sapiens) (UniProt P31152); conditions: Compound concentration 1000.0 nM
[28] = biological target: Proto-oncogene tyrosine-protein kinase ROS (Homo sapiens) (UniProt P08922); conditions: Compound concentration 1000.0 nM
[29] = tested on: Phosphatidylinositol 4,5-bisphosphate 3-kinase catalytic subunit alpha isoform (Homo sapiens), P42336 [M1043I]; conditions: Compound concentration 1000.0 nM
[30] = biological target: Fibroblast growth factor receptor 4 (Homo sapiens) (UniProt P22455); conditions: Compound concentration 1000.0 nM
[31] = biological target: Platelet-derived growth factor receptor beta (Homo sapiens) (UniProt P09619); conditions: Compound concentration 1000.0 nM
[32] = biological target: Ephrin type-A receptor 4 (Homo sapiens) (UniProt P54764); conditions: Compound concentration 1000.0 nM
[33] = biological target: Atypical kinase COQ8A, mitochondrial (Homo sapiens) (UniProt Q8NI60); conditions: Compound concentration 1000.0 nM
[34] = biological target: Adenosine receptor A2a (Homo sapiens) (UniProt P29274); assay: A2A (h) CEREP ligand profiling; conditions: filed as agonist, Compound concentration 10.0 uM
[35] = biological target: Aurora kinase A (Homo sapiens) (UniProt O14965); conditions: Compound concentration 1000.0 nM
[36] = biological target: Phosphatidylinositol 5-phosphate 4-kinase type-2 gamma (Homo sapiens) (UniProt Q8TBX8); conditions: Compound concentration 1000.0 nM
[37] = biological target: Angiopoietin-1 receptor (Homo sapiens) (UniProt Q02763); conditions: Compound concentration 1000.0 nM
[38] = tested on: Proto-oncogene tyrosine-protein kinase receptor Ret (Homo sapiens), P07949 [V804M]; conditions: Compound concentration 1000.0 nM
[39] = biological target: Receptor-interacting serine/threonine-protein kinase 4 (Homo sapiens) (UniProt P57078); conditions: Compound concentration 1000.0 nM
[40] = biological target: cGMP-dependent protein kinase 1 (Homo sapiens) (UniProt Q13976); conditions: Compound concentration 1000.0 nM
[41] = tested on: Tyrosine-protein kinase ABL1 (Homo sapiens), P00519 [M351T]; conditions: Compound concentration 1000.0 nM

Chain of Histamine H1 receptor (Homo sapiens) (P35367 whole entry): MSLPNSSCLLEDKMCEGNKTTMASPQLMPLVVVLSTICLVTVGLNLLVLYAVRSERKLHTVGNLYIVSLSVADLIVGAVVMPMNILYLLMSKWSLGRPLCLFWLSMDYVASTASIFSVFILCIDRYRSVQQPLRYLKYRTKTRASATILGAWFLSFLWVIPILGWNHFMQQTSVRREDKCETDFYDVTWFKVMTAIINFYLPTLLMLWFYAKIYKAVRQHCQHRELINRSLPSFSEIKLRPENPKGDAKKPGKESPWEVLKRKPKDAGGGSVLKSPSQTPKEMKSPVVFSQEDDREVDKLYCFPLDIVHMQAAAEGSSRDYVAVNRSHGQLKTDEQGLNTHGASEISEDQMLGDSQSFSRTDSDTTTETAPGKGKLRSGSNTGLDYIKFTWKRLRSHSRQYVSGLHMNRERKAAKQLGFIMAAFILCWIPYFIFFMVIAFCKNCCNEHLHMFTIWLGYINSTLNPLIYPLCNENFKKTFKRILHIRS
Chain of Ephrin type-B receptor 6 (Homo sapiens) (O15197 whole entry): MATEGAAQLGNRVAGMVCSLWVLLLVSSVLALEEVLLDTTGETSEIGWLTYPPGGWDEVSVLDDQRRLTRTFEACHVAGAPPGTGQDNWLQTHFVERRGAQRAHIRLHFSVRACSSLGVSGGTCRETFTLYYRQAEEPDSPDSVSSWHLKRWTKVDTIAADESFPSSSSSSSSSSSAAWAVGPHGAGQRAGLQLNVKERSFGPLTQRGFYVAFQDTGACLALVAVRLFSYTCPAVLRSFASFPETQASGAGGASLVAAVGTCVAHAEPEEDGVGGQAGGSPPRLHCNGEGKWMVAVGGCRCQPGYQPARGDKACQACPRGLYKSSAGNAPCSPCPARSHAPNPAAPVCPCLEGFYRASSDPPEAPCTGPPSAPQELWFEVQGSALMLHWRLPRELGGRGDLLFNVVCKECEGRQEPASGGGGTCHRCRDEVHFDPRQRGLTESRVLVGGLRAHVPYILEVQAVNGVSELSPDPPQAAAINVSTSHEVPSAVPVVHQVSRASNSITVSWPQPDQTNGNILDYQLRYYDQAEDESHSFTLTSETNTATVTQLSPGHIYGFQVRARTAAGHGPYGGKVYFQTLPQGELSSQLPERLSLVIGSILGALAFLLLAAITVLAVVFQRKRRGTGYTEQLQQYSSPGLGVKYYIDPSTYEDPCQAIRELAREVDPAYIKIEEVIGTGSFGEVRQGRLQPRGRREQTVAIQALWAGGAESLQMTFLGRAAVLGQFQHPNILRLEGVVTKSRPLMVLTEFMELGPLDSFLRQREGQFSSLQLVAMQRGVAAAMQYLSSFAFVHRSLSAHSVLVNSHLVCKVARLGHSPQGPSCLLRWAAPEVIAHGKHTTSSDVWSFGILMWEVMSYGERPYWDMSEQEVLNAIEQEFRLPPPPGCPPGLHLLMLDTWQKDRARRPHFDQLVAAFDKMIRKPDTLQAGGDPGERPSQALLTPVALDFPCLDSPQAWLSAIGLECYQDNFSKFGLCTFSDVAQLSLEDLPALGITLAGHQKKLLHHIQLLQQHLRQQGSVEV
Chain of Tyrosine-protein kinase JAK3 (Homo sapiens) (P52333 whole entry): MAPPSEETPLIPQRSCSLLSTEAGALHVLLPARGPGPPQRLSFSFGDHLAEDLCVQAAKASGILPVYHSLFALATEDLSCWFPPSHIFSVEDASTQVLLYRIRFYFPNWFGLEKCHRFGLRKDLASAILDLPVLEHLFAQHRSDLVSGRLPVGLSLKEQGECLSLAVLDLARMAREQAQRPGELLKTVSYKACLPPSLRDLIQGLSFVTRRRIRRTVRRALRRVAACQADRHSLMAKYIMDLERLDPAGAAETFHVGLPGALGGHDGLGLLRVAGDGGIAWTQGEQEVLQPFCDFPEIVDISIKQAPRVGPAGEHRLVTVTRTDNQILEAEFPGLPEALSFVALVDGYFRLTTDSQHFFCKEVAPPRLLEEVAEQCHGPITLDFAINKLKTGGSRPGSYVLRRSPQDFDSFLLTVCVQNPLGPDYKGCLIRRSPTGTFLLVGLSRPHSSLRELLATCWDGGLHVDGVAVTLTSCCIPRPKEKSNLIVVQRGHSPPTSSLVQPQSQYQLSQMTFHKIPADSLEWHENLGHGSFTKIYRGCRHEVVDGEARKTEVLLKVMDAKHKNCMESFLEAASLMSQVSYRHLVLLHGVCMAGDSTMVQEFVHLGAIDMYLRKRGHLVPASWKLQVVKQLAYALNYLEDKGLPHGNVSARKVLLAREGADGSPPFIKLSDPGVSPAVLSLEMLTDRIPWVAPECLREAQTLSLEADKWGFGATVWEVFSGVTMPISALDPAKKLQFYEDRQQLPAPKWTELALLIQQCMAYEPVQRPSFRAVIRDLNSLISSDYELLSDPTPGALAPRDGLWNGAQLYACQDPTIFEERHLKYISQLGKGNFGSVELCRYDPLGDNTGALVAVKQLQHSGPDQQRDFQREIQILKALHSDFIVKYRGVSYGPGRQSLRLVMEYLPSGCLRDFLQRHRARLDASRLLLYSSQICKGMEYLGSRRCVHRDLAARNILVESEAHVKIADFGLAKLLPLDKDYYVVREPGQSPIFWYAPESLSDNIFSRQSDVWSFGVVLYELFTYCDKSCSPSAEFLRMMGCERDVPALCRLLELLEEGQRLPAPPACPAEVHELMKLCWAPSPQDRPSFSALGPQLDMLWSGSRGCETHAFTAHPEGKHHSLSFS
Chain of Aurora kinase A (Homo sapiens) (O14965 whole entry): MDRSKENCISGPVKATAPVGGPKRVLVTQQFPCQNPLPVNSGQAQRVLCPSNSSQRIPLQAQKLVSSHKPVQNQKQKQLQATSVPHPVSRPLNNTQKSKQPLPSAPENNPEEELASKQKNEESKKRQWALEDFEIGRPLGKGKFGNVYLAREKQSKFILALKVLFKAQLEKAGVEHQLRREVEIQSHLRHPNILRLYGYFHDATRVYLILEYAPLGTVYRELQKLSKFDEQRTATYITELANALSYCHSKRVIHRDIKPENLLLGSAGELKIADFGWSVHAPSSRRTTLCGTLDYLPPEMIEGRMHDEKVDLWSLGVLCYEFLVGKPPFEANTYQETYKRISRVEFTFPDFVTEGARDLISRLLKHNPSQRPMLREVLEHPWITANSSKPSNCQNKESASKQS
Chain of Receptor-interacting serine/threonine-protein kinase 4 (Homo sapiens) (P57078 whole entry): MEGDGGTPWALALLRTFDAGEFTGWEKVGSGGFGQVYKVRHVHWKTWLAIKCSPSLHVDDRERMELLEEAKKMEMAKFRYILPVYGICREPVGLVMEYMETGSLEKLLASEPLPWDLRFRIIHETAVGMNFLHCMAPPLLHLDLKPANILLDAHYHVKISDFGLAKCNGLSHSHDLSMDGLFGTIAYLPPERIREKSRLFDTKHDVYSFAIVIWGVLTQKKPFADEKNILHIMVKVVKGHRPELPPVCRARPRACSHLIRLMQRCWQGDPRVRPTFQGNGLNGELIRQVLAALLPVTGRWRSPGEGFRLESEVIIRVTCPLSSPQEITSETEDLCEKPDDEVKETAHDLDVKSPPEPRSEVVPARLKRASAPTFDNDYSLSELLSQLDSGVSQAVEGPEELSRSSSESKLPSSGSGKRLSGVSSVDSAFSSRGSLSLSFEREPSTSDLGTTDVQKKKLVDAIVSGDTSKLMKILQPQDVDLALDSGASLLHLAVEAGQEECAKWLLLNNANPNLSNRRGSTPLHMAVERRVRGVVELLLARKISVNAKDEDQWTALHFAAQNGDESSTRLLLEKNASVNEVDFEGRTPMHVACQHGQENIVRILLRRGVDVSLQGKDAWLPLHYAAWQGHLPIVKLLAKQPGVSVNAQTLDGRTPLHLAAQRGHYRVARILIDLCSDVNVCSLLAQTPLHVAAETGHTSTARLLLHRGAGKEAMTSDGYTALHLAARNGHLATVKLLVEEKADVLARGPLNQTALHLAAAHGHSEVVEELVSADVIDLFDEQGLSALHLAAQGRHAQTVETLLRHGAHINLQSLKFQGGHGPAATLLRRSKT
Chain of Platelet-derived growth factor receptor beta (Homo sapiens) (P09619 whole entry): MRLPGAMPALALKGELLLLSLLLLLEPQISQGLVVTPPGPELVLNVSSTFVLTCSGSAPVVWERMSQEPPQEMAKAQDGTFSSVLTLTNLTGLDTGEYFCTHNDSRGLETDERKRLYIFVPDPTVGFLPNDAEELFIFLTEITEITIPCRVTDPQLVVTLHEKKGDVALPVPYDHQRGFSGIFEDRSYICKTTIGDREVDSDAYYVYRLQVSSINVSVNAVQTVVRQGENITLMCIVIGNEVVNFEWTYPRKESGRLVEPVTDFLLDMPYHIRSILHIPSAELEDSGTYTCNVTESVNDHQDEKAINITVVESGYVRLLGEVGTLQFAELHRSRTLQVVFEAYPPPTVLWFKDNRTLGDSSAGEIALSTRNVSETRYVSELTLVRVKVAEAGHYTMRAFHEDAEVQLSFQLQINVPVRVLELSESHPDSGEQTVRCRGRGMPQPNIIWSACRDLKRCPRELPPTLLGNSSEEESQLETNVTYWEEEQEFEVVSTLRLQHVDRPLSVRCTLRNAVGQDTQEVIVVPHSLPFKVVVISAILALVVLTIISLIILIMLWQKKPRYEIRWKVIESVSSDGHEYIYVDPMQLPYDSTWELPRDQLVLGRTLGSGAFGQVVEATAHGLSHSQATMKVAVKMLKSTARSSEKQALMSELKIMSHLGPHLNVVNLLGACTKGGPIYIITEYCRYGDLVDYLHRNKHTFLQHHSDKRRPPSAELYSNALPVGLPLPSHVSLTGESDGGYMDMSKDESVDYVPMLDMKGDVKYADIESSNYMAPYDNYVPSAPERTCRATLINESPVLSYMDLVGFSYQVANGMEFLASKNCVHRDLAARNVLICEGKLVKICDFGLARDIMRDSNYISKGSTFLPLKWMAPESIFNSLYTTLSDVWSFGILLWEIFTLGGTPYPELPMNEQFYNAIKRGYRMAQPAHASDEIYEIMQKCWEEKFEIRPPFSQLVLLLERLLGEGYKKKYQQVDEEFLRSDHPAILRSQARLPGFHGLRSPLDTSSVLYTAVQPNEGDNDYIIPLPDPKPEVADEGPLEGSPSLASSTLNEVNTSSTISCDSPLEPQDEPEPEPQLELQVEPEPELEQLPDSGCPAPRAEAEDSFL

Compound CNC(=O)Nc1ccc2c(c1)CC[C@@]21OC(=O)N(CC(=O)N(Cc2ccc(F)cc2)[C@@H](C)C(F)(F)F)C1=O [A-485] has a residual activity [1] of 88%, an inhibition [2] of 12% and an inhibition [3] of 13%. For the same compound, the residual activity [4] was 67%, the residual activity [5] was 90% and the residual activity [6] was 74%. The residual activity [7] was 95%, the residual activity [8] was 94% and the residual activity [9] was 100%. It also gave a residual activity [10] of 96%, a residual activity [11] of 70% and a residual activity [12] of 100%. The inhibition [13] was 22%, the inhibition [14] was 1.99% and the residual activity [15] was 96%. The residual activity [16] was 95%, the residual activity [17] was 64% and the inhibition [18] was -9%. For the same compound, the residual activity [19] was 73%, the residual activity [20] was 100% and the residual activity [21] was 98%. For the same compound, the residual activity [22] was 74%, the residual activity [23] was 66% and the residual activity [24] was 89%. The residual activity [25] was 96%, the residual activity [26] was 49% and the residual activity [27] was 84%. The residual activity [28] was 80%, the residual activity [29] was 100% and the residual activity [30] was 100%. It also gave a residual activity [31] of 100%, a residual activity [32] of 89% and a residual activity [33] of 74%. For the same compound, the inhibition [34] was 7%, the residual activity [35] was 80% and the residual activity [36] was 93%. It also gave a residual activity [37] of 87%, a residual activity [38] of 98% and a residual activity [39] of 56%. For the same compound, the residual activity [40] was 100% and the residual activity [41] was 100%.

CNC(=O)Nc1ccc2c(c1)[C@@]1(CC2)OC(=O)N(CC(=O)N(Cc2ccc(F)cc2)[C@@H](C)C(F)(F)F)C1=O [A-486] was tested, and the residual activity [1] was 84%, the inhibition [2] was 8% and the inhibition [3] was 16%. It also gave a residual activity [4] of 68%, a residual activity [5] of 67% and a residual activity [6] of 83%. For the same compound, the residual activity [7] was 64%, the residual activity [8] was 100% and the residual activity [9] was 100%. For the same compound, the residual activity [10] was 100%, the residual activity [11] was 69% and the residual activity [12] was 93%. For the same compound, the inhibition [13] was 7%, the inhibition [14] was -7.68% and the residual activity [15] was 0%. For the same compound, the residual activity [16] was 89%, the residual activity [17] was 77% and the inhibition [18] was 6%. For the same compound, the residual activity [19] was 91%, the residual activity [20] was 100% and the residual activity [21] was 100%. It also gave a residual activity [22] of 82%, a residual activity [23] of 67% and a residual activity [24] of 100%. For the same compound, the residual activity [25] was 100%, the residual activity [26] was 53% and the residual activity [27] was 98%. It also gave a residual activity [28] of 87%, a residual activity [29] of 100% and a residual activity [30] of 98%. The residual activity [31] was 87%, the residual activity [32] was 86% and the residual activity [33] was 88%. For the same compound, the inhibition [34] was -1%, the residual activity [35] was 79% and the residual activity [36] was 100%. The residual activity [37] was 100%, the residual activity [38] was 100% and the residual activity [39] was 52%. It also gave a residual activity [40] of 100% and a residual activity [41] of 88%.
